Experimental data published in the supplement of paper PMC11061612.

Experiments:
[1] = compound: C1CC(C1)(C(=O)[O-])C(=O)[O-].N.N.[Pt+2] [Carboplatin]; conditions: max 10 µM
Procedure, shortened: (§1)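 Cancer cell lines in 1536-well plates (7.5 μl DMEM/F12 or RPMI, 10% FBS) were held 24 hours at 37°C and 5% CO2 and then dosed for 72 hours at a final DMSO of typically 0.2%. Viability was taken from CellTiter-Glo 2.0 luminescence, scaled between blank-well and DMSO-well means. Curves were fitted as two-parameter logistic models with a non-linear mixed effects model, from which the single-agent IC50 was taken.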

[2] = compound: C1CN(CCC1(C(=O)N[C@@H](CCO)C2=CC=C(C=C2)Cl)N)C3=NC=NC4=C3C=CN4 [AZD5363]; conditions: max 10 µM
Procedure, shortened: as §1

[3] = compound: C=CCn1c(=O)c2cnc(Nc3ccc(N4CCN(C)CC4)cc3)nc2n1-c1cccc(C(C)(C)O)n1 [AZD1775]; conditions: max 3 µM
Procedure, shortened: as §1

[4] = compound: CC(=O)Nc1cccc(-n2c(=O)n(C3CC3)c(=O)c3c(Nc4ccc(I)cc4F)n(C)c(=O)c(C)c32)c1 [Trametinib]; conditions: max 1 µM
Procedure, shortened: as §1

[5] = compound: CC(=O)O[C@H]1C(=O)[C@@]2(C)[C@H]([C@H](OC(=O)c3ccccc3)[C@]3(O)C[C@H](OC(=O)[C@H](O)[C@@H](NC(=O)c4ccccc4)c4ccccc4)C(C)=C1C3(C)C)[C@]1(OC(C)=O)CO[C@@H]1C[C@@H]2O [Paclitaxel]; conditions: max 3 µM
Procedure, shortened: as §1

[6] = compound: CC(=O)c1c(C)c2cnc(Nc3ccc(N4CCNCC4)cn3)nc2n(C2CCCC2)c1=O [Palbociclib]; conditions: max 10 µM
Procedure, shortened: as §1

[7] = compound: CC(C)n1c(=O)n(C)c2cnc3cc(F)c(-c4ccc(OCCCN5CCCCC5)nc4)cc3c21 [AZD1390]; conditions: max 0.3 µM
Procedure, shortened: as §1

[8] = compound: CC1(C)CCC(CN2CCN(c3ccc(C(=O)NS(=O)(=O)c4ccc(NCC5CCOCC5)c([N+](=O)[O-])c4)c(Oc4cnc5[nH]ccc5c4)c3)CC2)=C(c2ccc(Cl)cc2)C1 [Venetoclax]; conditions: max 1 µM
Procedure, shortened: as §1

[9] = compound: CC1=C(C(=CC=C1)Cl)NC(=O)C2=CN=C(S2)NC3=CC(=NC(=N3)C)N4CCN(CC4)CCO [Dasatinib]; conditions: max 2 µM
Procedure, shortened: as §1

[10] = compound: CC1=CN2[C@@H](C1)C=NC3=CC(=C(C=C3C2=O)OC)OCCCCCOC4=C(C=C5C(=C4)N=C[C@@H]6CC(=CN6C5=O)C)OC [SG3199]; conditions: max 0.001 µM
Procedure, shortened: as §1

[11] = compound: CCN(CCO)CCCOc1ccc2c(Nc3cc(CC(=O)Nc4cccc(F)c4)[nH]n3)ncnc2c1 [AZD2811]; conditions: max 1 µM
Procedure, shortened: as §1

[12] = compound: CCc1c2c(nc3ccc(O)cc13)-c1cc3c(c(=O)n1C2)COC(=O)[C@]3(O)CC [SN-38]; conditions: max 0.3 µM
Procedure, shortened: as §1

[13] = compound: CN(C)CCCOc1ccc(-c2ccc3ncc4c(c3c2)n(C2CCOCC2)c(=O)n4C)cn1 [AZD0156]; conditions: max 3 µM
Procedure, shortened: as §1

[14] = compound: CN(CC[C@H](CSC1=CC=CC=C1)NC2=C(C=C(C=C2)S(=O)(=O)NC(=O)C3=CC=C(C=C3)N4CCC(CC4)[C@H](C5=CC=CC=C5C6=CC=C(C=C6)Cl)O)S(=O)(=O)C(F)(F)F)CCO [AZD4320]; conditions: max 1 µM
Procedure, shortened: as §1

[15] = compound: COc1cc(Nc2ncc3c(n2)-c2ccc(Cl)cc2C(c2c(F)cccc2OC)=NC3)ccc1C(=O)O [Alisertib]; conditions: max 10 µM
Procedure, shortened: as §1

[16] = compound: COc1cc([C@@H]2c3cc4c(cc3[C@@H](O[C@@H]3O[C@@H]5CO[C@@H](C)O[C@H]5[C@H](O)[C@H]3O)[C@H]3COC(=O)[C@H]23)OCO4)cc(OC)c1O [Etoposide]; conditions: max 10 µM
Procedure, shortened: as §1

[17] = compound: COc1cc2ncnc(Nc3ccc(F)c(Cl)c3)c2cc1OCCCN1CCOCC1 [Gefitinib]; conditions: max 10 µM
Procedure, shortened: as §1

[18] = compound: COc1cccc(OCCCN)c1-c1cc(Nc2cnc(C#N)cn2)n[nH]1 [Prexasertib]; conditions: max 1 µM
Procedure, shortened: as §1

[19] = compound: COc1cccc2c1C(=O)c1c(O)c3c(c(O)c1C2=O)C[C@@](O)(C(=O)CO)C[C@@H]3O[C@H]1C[C@H](N)[C@H](O)[C@H](C)O1 [Doxorubicin]; conditions: max 1 µM
Procedure, shortened: as §1

[20] = compound: COc1nnc2ccc(N3CCC(c4ccc(OCCN5CCN(C)C(=O)[C@H]5C)cc4)CC3)nn12 [AZD5153]; conditions: max 1 µM
Procedure, shortened: as §1

[21] = compound: CS(=O)(=O)CCNCc1ccc(-c2ccc3ncnc(Nc4ccc(OCc5cccc(F)c5)c(Cl)c4)c3c2)o1 [Lapatinib]; conditions: max 10 µM
Procedure, shortened: as §1

[22] = compound: C[C@@H](Nc1cc(F)cc(F)c1)c1cc(C(=O)N(C)C)cc2c(=O)cc(N3CCOCC3)oc12 [AZD8186]; conditions: max 10 µM
Procedure, shortened: as §1

[23] = compound: C[C@@H](Oc1cc(-c2cnn(C3CCNCC3)c2)cnc1N)c1c(Cl)ccc(F)c1Cl [Crizotinib]; conditions: max 10 µM
Procedure, shortened: as §1

[24] = compound: C[C@@H](c1ccc2nccn2c1)n1nnc2ncc(-c3cnn(C)c3)nc21 [Savolitinib]; conditions: max 1 µM
Procedure, shortened: as §1

[25] = compound: C[C@@H]1COCCN1C2=NC(=NC(=C2)C3(CC3)[S@](=N)(=O)C)C4=C5C=CNC5=NC=C4 [AZD6738]; conditions: max 10 µM
Procedure, shortened: as §1

[26] = compound: Cc1c2c(nn1C)CSCc1cc(n(C)n1)CSc1cc(c3ccccc3c1)OCCCc1c(C(=O)O)n(C)c3c-2c(Cl)ccc13 [AZD5991]; conditions: max 1 µM
Procedure, shortened: as §1

[27] = compound: Cc1cc2ncnn2cc1Nc1ncc2c(n1)n(C1CCOCC1)c(=O)n2C [AZD7648]; conditions: max 10 µM
Procedure, shortened: as §1

[28] = compound: Cc1nc(-c2cn3c(n2)-c2ccc(-c4cnn(C(C)(C)C(N)=O)c4)cc2OCC3)n(C(C)C)n1 [Taselisib]; conditions: max 10 µM
Procedure, shortened: as §1

[29] = compound: Cn1cnc2c(F)c(Nc3ccc(Br)cc3Cl)c(C(=O)NOCCO)cc21 [Selumetinib]; conditions: max 10 µM
Procedure, shortened: as §1

[30] = compound: N#Cc1cnc(Nc2cc(NC[C@H]3CNCCO3)c(C(F)(F)F)cn2)cn1 [SRA737]; conditions: max 10 µM
Procedure, shortened: as §1

[31] = compound: NC1(c2ccc(-c3nc4ccn5c(=O)[nH]nc5c4cc3-c3ccccc3)cc2)CCC1 [MK-2206]; conditions: max 10 µM
Procedure, shortened: as §1

[32] = compound: Nc1ccn([C@@H]2O[C@H](CO)[C@@H](O)C2(F)F)c(=O)n1 [Gemcitabine]; conditions: max 0.3 µM
Procedure, shortened: as §1

[33] = compound: O=C(Nc1ccc2[nH]nc(-c3ccncc3)c2c1)[C@@H]1CCN(CC(=O)N2CCN(c3ccc(-c4ncccn4)cc3)CC2)C1; conditions: max 5 µM
Procedure, shortened: as §1

[34] = compound: O=C(c1cc(Cc2n[nH]c(=O)c3ccccc23)ccc1F)N1CCN(C(=O)C2CC2)CC1 [Olaparib]; conditions: max 10 µM
Procedure, shortened: as §1

[35] = compound: O=c1[nH]cc(F)c(=O)[nH]1 [5-Fluorouracil]; conditions: max 20 µM
Procedure, shortened: as §1

Row | Cell Line | IC50, cell viability 72 h [1] [nM] | IC50, cell viability 72 h [2] [nM] | IC50, cell viability 72 h [3] [nM] | IC50, cell viability 72 h [4] [nM] | IC50, cell viability 72 h [5] [nM] | IC50, cell viability 72 h [6] [nM] | IC50, cell viability 72 h [7] [nM] | IC50, cell viability 72 h [8] [nM] | IC50, cell viability 72 h [9] [nM] | IC50, cell viability 72 h [10] [nM] | IC50, cell viability 72 h [11] [nM] | IC50, cell viability 72 h [12] [nM] | IC50, cell viability 72 h [13] [nM] | IC50, cell viability 72 h [14] [nM] | IC50, cell viability 72 h [15] [nM] | IC50, cell viability 72 h [16] [nM] | IC50, cell viability 72 h [17] [nM] | IC50, cell viability 72 h [18] [nM] | IC50, cell viability 72 h [19] [nM] | IC50, cell viability 72 h [20] [nM] | IC50, cell viability 72 h [21] [nM] | IC50, cell viability 72 h [22] [nM] | IC50, cell viability 72 h [23] [nM] | IC50, cell viability 72 h [24] [nM] | IC50, cell viability 72 h [25] [nM] | IC50, cell viability 72 h [26] [nM] | IC50, cell viability 72 h [27] [nM] | IC50, cell viability 72 h [28] [nM] | IC50, cell viability 72 h [29] [nM] | IC50, cell viability 72 h [30] [nM] | IC50, cell viability 72 h [31] [nM] | IC50, cell viability 72 h [32] [nM] | IC50, cell viability 72 h [33] [nM] | IC50, cell viability 72 h [34] [nM] | IC50, cell viability 72 h [35] [nM]
1 | OCUB-M (Breast Carcinoma) | > 10000 | 429 | > 3000 | > 1000 | 9.26 | > 10000 | > 300 | > 1000 | > 2000 | > 1 | 73.4 | 49.2 | > 3000 | 878 | 2810 | 634 | > 10000 | 463 | 241 | > 1000 | 4790 | > 10000 | > 10000 | > 1000 | > 10000 | 104 | > 10000 | 109 | > 10000 | > 10000 | 1220 | 91.1 | > 5000 | > 10000 | > 20000
2 | OCUM-1 (Gastric Carcinoma) | > 10000 | 8900 | 1510 | 1.85 | 2620 | > 10000 | > 300 | > 1000 | > 2000 | > 1 | > 1000 | 48.6 | > 3000 | 571 | > 10000 | > 10000 | > 10000 | 78.1 | > 1000 | 645 | > 10000 | > 10000 | > 10000 | > 1000 | 2950 | > 1000 | > 10000 | > 10000 | 63 | > 10000 | > 10000 | 110 | 35.9 | > 10000 | > 20000
3 | SCC-9 (Oral Cavity Carcinoma) | > 10000 | > 10000 | 2830 | > 1000 | 284 | > 10000 | > 300 | > 1000 | 1150 | > 1 | > 1000 | > 300 | > 3000 | > 1000 | > 10000 | > 10000 | > 10000 | > 1000 | > 1000 | > 1000 | 5060 | > 10000 | > 10000 | > 1000 | > 10000 | > 1000 | > 10000 | 2140 | > 10000 | > 10000 | > 10000 | > 300 | > 5000 | > 10000 | > 20000
4 | SNU-C1 (Colorectal Carcinoma) | > 10000 | > 10000 | > 3000 | 75.1 | > 3000 | > 10000 | > 300 | > 1000 | > 2000 | > 1 | > 1000 | > 300 | > 3000 | > 1000 | > 10000 | > 10000 | > 10000 | 73.5 | > 1000 | > 1000 | > 10000 | > 10000 | > 10000 | > 1000 | > 10000 | > 1000 | > 10000 | 3360 | 1260 | > 10000 | 9530 | > 300 | 802 | > 10000 | > 20000
5 | TGBC11TKB (Gastric Carcinoma) | > 10000 | > 10000 | 287 | 522 | 20.4 | > 10000 | > 300 | > 1000 | > 2000 | > 1 | > 1000 | 159 | > 3000 | > 1000 | > 10000 | > 10000 | > 10000 | 11.2 | > 1000 | > 1000 | > 10000 | > 10000 | > 10000 | > 1000 | 2020 | > 1000 | > 10000 | > 10000 | 8400 | 1710 | > 10000 | 45.4 | > 5000 | > 10000 | > 20000
6 | VMRC-LCD (Lung Adenocarcinoma) | > 10000 | > 10000 | > 3000 | > 1000 | 19 | > 10000 | > 300 | > 1000 | > 2000 | > 1 | 745 | > 300 | > 3000 | > 1000 | 668 | > 10000 | > 10000 | 115 | > 1000 | 802 | > 10000 | > 10000 | 5710 | > 1000 | > 10000 | > 1000 | > 10000 | > 10000 | > 10000 | > 10000 | > 10000 | > 300 | > 5000 | > 10000 | > 20000
